Test results taken from patent US7794967B2, “Method and kit for detection of novel pathogen inhibitors” (priority 2001, dated 2010).
Where two headings read alike, the source gives them in different places.

Tests used:
[1] = target: Escherichia coli Klenow polymerase (pol) (Escherichia coli, UniProt P00582, D355A/E357A); assay: Inhibition of Klenow polymerase activity
Taq DNA polymerase = Taq DNA polymerase (Thermus aquaticus, UniProt P19821); assay: In vitro inhibition of Taq DNA polymerase; assay type: biochemical; conditions: addition of 0.1-5 mM neomycin B
Source text: (§1) The mechanisms behind toxicity and severe side-effects are not understood and several potential causes have been discussed in the literature.

[2] = target: Bam HI restriction enzyme (Bacillus amyloliquefaciens, UniProt P23940); assay: In vitro inhibition of Bam HI restriction enzyme; assay type: biochemical; conditions: addition of 0.1-5 mM neomycin B
Source text: as §1

[3] = system: Full-size E. coli RNase P RNA; conditions: Mikkelsen et al., 1999; cited from earlier work
[4] = target: T1, HIV reverse transcriptase (Human immunodeficiency virus type 1 group M subtype B, UniProt P04585); assay: In vitro inhibition of HIV reverse transcriptase; assay type: biochemical; conditions: addition of 0.1-5 mM neomycin B
T1 construct: HIV reverse transcriptase
Source text: as §1

[5] = target: mammalian poly(A) polymerase (Homo sapiens, UniProt P51003); assay: In vitro inhibition of mammalian poly(A) polymerase; assay type: biochemical; conditions: addition of 0.1-5 mM neomycin B
Source text: as §1

PARN = target: T2, PARN (Homo sapiens, UniProt O95453); assay: Fe(II) mediated hydroxyl radical cleavage of PARN; assay type: binding
T2 construct: Recombinant full length human PARN was expressed and purified as described; made in house; host or cells: E. coli
T2 sequence (O95453 1-639): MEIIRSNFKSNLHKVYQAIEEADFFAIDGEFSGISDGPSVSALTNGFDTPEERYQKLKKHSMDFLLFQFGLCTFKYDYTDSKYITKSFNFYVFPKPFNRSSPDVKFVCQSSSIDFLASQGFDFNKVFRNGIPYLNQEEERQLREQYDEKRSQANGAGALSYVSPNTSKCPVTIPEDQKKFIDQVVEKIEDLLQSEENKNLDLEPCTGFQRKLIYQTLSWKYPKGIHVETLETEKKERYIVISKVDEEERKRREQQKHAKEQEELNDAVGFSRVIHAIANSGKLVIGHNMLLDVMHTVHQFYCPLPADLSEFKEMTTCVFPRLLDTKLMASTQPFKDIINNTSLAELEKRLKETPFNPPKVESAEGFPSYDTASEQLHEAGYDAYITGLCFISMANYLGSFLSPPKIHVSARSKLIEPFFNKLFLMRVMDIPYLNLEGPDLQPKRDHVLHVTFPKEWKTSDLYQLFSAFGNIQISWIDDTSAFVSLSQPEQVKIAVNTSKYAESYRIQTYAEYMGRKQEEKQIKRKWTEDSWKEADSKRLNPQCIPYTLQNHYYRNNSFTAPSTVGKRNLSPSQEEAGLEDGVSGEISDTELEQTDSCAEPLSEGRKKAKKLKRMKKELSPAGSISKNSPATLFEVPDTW
Method: Recombinant PARN polypeptides expressed in E. coli were purified and radioactively labelled in their N-termini. Fe(II) mediated hydroxyl radical cleavage, of PARN was essentially performed as described above. Reacted samples were subjected to 10% SDS-polyacrylamide gel electrophoresis and the resulting gel was subsequently visualized and quantified using a 400 S PhosphorImager (Molecular Dynamics). In the Mg(II) and Mn(II) ions competition experiments, MgCl2 or MnCl2 was added at indicated concentration in the presence of 20 micromolar Fe(NH4)2SO4.

RNase P RNA [6] = conditions: values marked *, from Mikkelsen et al., 1999; read-out: appKi inhibition of RNase P RNA cleavage; cited from earlier work
Klenow pol = assay: Fe(II) mediated hydroxyl radical cleavage of Klenow pol; assay type: binding, Escherichia coli
Method: 2-4 microgram of purified recombinant Klenow pol fragment or mutant thereof, dialysed against buffer F (20 mM HEPES-KOH pH 7.0, 5 mM NaCl) on a Milipore “V” Series Membrane (Millipore) for 30 minutes at 4° C., was incubated for 30 minutes at 37° C. in 50 mM HEPES pH 7.0, 5 mM NaCl, 20 micromolar Fe(NH4)2SO4 and 10 mM DTT in total volume of 10 microliter. The incubations were stopped by the addition of 10 microliter of 2×SDS-loading buffer (100 mM Tris-HCl pH 6.8, 2% (w/v) SDS, 200 mM DTT, 16%(v/v) glycerol, 0.05%(w/v) bromolphenol blue and 50 mM EDTA). The amount of added Mg(II)-ions, Mn(II)-ions or aminoglycoside was as indicated. Reacted polypeptides were fractionated by 10% SDS-polyacrylamide gel electrophoresis and subsequently visualised by silver staining.

[7] = target: 31-mer RNA representing the P15-loop of RNase P RNA; assay: Inhibition of Pb2+-induced cleavage of the 31-mer model RNA (P15-loop); assay type: binding, Escherichia coli; conditions: aminoglycoside concentration that gives 50% inhibition of Pb2+-induced cleavage; read-out: appKi 31-mer RNA
T7 RNA polymerase = T7 RNA polymerase (Escherichia phage T7, UniProt P00573); assay: In vitro inhibition of T7 RNA polymerase; assay type: biochemical; conditions: addition of 0.1-5 mM neomycin B
Source text: as §1

bacterial RNase H = bacterial RNase H (Escherichia coli, UniProt P0A7Y4); assay: In vitro inhibition of bacterial RNase H; assay type: biochemical; conditions: addition of 0.1-5 mM neomycin B
Source text: as §1

[8] = target: T3, mammalian poly(A)-specific ribonuclease (PARN) (Bos taurus, UniProt P69341); assay: Inhibition of PARN deadenylation activity; assay type: biochemical, calf thymus; conditions: for IC50: appKi = aminoglycoside concentration resulting in 50% inhibition of PARN activity, pH 7.0
T3 sequence (P69341 1-430 limits assumed): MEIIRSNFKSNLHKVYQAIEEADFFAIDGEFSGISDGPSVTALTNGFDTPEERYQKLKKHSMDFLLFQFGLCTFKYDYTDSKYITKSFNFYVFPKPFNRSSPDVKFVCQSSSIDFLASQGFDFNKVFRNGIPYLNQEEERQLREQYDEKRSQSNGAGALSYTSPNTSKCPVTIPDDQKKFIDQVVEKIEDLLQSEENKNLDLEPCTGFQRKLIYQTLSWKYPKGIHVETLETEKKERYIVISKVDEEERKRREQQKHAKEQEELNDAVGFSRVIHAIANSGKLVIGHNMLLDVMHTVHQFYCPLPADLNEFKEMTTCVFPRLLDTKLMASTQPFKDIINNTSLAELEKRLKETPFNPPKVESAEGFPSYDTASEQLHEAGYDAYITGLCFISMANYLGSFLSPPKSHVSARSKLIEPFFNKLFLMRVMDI
Source text: Homogeneously purified calf thymus PARN 54 kDa active fragment was used as the source of PARN (Martinez et al. 2000). Recombinant full length human PARN was expressed and purified as described (Martinez et al. 2000). As the substrate we used L3(A30) RNA radioactively labelled in its poly(Å) tail (Åström et al. 1991). Assay conditions and 1-D TLC quantitation procedures were as previously described (Åström et al. 1992). The pH of the deadenylation reactions were 7.0, unless stated otherwise. The consumption of L3(A30) RNA substrate was controlled so that no more than 20% of it was consumed.

RNase P RNA [9] = assay: Inhibition of RNase P RNA cleavage; assay type: biochemical, Escherichia coli; conditions: value without asterisk; read-out: appKi inhibition of RNase P RNA cleavage
Method: The structure of some aminoglycosides that inhibit RNase P cleavage are depicted in FIG. 3. Aminoglycosides bind to RNA and displace functionally important divalent metal ions. Thus, aminoglycosides function as metal mimics (Mikkelsen et al., 2001).
RNase P cleavage and Pb2+-induced cleavage was performed and monitored according to standard protocols as described by Kufel and Kirsebom (1998). To determine the appKi value for a given substance RNase P cleavage or Pb2+-induced cleavage conditions were adjusted in such a way that measurements were carried out in the linear portion of the curve of kinetics of the cleavage reaction.

[10] = read-out: appKi (for KL pol), […], pH 7.0

Sequence of Escherichia coli Klenow polymerase (pol) (P00582 324-928 D355A/E357A): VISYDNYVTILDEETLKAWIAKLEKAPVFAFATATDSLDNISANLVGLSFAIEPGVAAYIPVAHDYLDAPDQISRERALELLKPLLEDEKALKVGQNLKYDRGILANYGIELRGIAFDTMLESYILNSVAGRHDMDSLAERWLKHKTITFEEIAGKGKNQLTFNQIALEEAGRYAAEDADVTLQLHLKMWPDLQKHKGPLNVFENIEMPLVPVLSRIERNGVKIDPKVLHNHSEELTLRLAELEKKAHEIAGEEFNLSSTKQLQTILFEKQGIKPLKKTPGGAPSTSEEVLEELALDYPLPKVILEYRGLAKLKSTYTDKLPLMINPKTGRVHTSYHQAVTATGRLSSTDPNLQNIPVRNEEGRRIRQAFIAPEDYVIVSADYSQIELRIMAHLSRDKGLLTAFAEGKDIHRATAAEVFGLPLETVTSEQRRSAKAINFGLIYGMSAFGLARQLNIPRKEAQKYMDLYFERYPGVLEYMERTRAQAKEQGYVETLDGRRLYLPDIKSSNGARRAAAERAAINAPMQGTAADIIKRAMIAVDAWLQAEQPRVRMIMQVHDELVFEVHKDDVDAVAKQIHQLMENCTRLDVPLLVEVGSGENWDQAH
Sequence of Bam HI restriction enzyme (P23940 whole entry): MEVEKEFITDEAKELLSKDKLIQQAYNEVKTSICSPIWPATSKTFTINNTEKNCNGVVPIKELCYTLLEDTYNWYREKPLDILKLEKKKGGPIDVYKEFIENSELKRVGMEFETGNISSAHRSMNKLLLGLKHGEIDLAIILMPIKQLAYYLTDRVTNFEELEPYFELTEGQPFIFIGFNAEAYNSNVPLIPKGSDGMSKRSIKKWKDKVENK
Sequence of bacterial RNase H (P0A7Y4 whole entry): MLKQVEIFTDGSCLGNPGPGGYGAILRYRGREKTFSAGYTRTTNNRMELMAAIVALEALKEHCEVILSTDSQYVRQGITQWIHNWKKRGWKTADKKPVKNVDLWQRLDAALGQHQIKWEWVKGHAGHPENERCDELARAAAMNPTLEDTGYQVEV
Sequence of T7 RNA polymerase (P00573 whole entry): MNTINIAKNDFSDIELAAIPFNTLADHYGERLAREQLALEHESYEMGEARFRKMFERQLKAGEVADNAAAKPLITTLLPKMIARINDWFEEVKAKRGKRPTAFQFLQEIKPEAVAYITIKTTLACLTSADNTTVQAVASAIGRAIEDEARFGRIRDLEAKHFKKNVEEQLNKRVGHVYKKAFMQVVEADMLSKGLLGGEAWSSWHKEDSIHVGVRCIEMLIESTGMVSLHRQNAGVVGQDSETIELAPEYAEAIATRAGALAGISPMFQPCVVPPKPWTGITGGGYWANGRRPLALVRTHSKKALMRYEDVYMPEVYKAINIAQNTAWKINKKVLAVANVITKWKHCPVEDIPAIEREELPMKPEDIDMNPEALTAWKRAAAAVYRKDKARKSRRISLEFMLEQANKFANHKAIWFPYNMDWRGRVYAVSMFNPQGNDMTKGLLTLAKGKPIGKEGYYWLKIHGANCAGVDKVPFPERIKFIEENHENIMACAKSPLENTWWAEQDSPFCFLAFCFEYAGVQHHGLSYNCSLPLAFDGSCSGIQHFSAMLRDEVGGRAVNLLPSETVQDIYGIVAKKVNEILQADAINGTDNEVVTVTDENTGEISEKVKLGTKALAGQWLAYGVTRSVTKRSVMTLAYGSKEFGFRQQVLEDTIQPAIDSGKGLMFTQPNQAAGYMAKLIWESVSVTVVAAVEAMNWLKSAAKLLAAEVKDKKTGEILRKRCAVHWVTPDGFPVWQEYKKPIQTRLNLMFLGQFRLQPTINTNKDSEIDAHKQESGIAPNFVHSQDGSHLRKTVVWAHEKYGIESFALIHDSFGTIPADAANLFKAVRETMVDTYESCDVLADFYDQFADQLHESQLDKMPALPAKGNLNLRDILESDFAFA
Sequence of mammalian poly(A) polymerase (P51003 whole entry): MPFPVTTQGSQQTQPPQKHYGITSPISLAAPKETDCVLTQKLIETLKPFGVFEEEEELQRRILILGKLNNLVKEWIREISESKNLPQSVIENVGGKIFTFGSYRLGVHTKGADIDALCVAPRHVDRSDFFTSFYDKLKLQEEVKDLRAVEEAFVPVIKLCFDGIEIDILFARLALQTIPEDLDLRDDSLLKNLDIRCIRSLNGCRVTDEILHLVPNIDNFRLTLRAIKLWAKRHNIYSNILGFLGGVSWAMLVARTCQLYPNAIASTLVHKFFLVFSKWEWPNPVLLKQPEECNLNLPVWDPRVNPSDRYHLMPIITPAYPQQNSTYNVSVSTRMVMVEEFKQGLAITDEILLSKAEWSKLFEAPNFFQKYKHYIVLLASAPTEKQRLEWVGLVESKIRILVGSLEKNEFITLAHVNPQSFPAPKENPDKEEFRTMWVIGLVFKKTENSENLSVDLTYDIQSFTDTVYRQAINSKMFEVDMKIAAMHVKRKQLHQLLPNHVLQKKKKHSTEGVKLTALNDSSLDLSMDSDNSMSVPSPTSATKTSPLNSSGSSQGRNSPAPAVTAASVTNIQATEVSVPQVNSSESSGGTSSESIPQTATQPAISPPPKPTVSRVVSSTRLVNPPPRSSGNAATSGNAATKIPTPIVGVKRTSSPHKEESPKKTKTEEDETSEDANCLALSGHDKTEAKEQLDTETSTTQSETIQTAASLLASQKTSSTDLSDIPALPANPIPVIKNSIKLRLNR
Sequence of Taq DNA polymerase (P19821 whole entry): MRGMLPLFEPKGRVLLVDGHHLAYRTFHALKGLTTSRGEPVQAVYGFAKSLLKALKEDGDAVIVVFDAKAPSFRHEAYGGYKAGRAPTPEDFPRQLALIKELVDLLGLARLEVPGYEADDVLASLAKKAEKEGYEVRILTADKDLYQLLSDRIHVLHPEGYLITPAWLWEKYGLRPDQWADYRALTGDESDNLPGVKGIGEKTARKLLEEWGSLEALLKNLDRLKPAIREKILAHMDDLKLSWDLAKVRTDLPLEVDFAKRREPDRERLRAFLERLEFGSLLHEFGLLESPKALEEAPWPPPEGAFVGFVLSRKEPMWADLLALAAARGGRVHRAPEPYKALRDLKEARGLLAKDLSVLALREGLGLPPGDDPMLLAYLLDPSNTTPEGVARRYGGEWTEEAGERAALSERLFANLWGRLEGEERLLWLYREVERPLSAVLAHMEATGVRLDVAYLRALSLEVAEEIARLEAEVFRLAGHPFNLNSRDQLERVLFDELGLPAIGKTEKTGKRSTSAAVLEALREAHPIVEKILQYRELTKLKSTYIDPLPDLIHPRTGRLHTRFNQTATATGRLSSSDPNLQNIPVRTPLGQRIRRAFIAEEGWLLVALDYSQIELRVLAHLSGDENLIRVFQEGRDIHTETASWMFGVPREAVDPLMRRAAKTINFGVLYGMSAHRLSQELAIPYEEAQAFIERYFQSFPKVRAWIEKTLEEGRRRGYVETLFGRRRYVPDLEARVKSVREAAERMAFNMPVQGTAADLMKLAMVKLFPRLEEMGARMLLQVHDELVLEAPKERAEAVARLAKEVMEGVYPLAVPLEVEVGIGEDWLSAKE

Molecule `NC[C@H]1O[C@H](O[C@H]2[C@H](O)[C@@H](O[C@H]3O[C@H](CO)[C@@H](O)[C@H](N)[C@H]3O)[C@H](N)C[C@@H]2N)[C@H](O)[C@@H](O)[C@@H]1O` [Kanamycin A] has an IC50 [1, 10] of 14300 ± 1700 µM.
In the case of `NC[C@@H]1O[C@H](O[C@H]2[C@@H](O)[C@H](O[C@@H]3[C@@H](O)[C@H](N)C[C@H](N)[C@H]3O[C@H]3O[C@H](CN)[C@@H](O)[C@H](O)[C@H]3N)O[C@@H]2CO)[C@H](N)[C@@H](O)[C@@H]1O` [Neomycin B], the “mode of inhibition (enzyme kinetic analyses)” value ([1]; Klenow pol) is reported as “mixed non-competitive inhibitor”, the “pH dependence of inhibition” value ([1]; Klenow pol) is reported as “pH dependent” and the IC50 [1, 10] is reported as 4800 ± 300 µM. For the same molecule, the “inhibition of Taq DNA polymerase” value (Taq DNA polymerase) was “can be inhibited”, the “inhibition of Bam HI restriction enzyme” value [2] was “can be inhibited” and the “inhibition of Pb2+-induced cleavage of E. coli RNase P RNA” value [3] was “inhibited”. For the same molecule, the “inhibition of HIV reverse transcriptase” value [4] was “can be inhibited”, the “inhibition of mammalian poly(A) polymerase” value [5] was “can be inhibited” and the “effect on iron mediated cleavage at the active site” value (PARN) was “interfered with iron mediated cleavage”. The IC50 (RNase P RNA [6]) was 35 ± 12 µM, the “effect on iron mediated cleavage at the active site” value (Klenow pol) was “interfered with iron mediated cleavage” and the IC50 [7] was 40 µM. The “inhibition of T7 RNA polymerase” value (T7 RNA polymerase) was “can be inhibited”, the “inhibition of bacterial RNase H” value (bacterial RNase H) was “can be inhibited” and the “mode of inhibition (enzyme kinetic analyses)” value ([8]; PARN) was “mixed non-competitive inhibitor”. The “pH dependence of inhibition” value ([8]; PARN) was “pH dependent” and the IC50 [8] was 0.4 ± 0.1 µM.
`NC[C@H]1O[C@H](O[C@H]2[C@H](O)[C@@H](O[C@H]3O[C@H](CO)[C@@H](O)[C@H](N)[C@H]3O)[C@H](N)C[C@@H]2N)[C@H](N)[C@@H](O)[C@@H]1O` [Kanamycin B] showed an IC50 [1, 10] of 9200 ± 300 µM and an IC50 [8] of 7.3 ± 0.4 µM.
For `NC[C@@H]1O[C@H](O[C@H]2[C@@H](O)[C@H](O[C@@H]3[C@@H](O)[C@H](N)C[C@H](N)[C@H]3O[C@H]3O[C@H](CO)[C@@H](O)[C@H](O)[C@H]3N)O[C@@H]2CO)[C@H](N)[C@@H](O)[C@@H]1O` [Paromomycin], the IC50 [1] is given as 10300 ± 800 µM, the IC50 (RNase P RNA [6]) is given as 190 ± 12 µM and the IC50 [7] is given as 340 µM. The IC50 [8] was 17.3 ± 3.5 µM.
`NC[C@@H]1O[C@H](O[C@H]2[C@@H](O)[C@H](O[C@@H]3[C@@H](O)[C@H](N)C[C@H](N)[C@H]3O[C@H]3O[C@H](CO)[C@@H](O)C[C@H]3N)O[C@@H]2CO)[C@H](N)[C@@H](O)[C@@H]1O[C@H]1O[C@H](CO)[C@@H](O)[C@H](O)[C@@H]1O` [Lividomycin] showed an IC50 [1] of 11600 ± 2000 µM and an IC50 [8] of 18.7 ± 2.8 µM.
In the case of `CN[C@@H]1[C@@H](O)[C@@H](O[C@@H]2[C@H](O)[C@H](O[C@H]3OC(CN)=CC[C@H]3N)[C@@H](N)C[C@H]2N)OC[C@]1(C)O` [5-epi-Sisomicin], the IC50 (RNase P RNA [9]) is reported as roughly 3 µM and the IC50 [7] is reported as 1.2 µM.
Molecule `NC[C@H]1O[C@H](O[C@H]2[C@H](O)[C@@H](O[C@H]3O[C@H](CO)[C@@H](O)[C@H](N)[C@H]3O)[C@H](N)C[C@@H]2N)[C@H](N)C[C@@H]1O` [Tobramycin] has an IC50 [1] of 9300 ± 700 µM and an IC50 [8] of 7.1 ± 0.2 µM.
For `CN[C@@H]1[C@@H](O)[C@@H](O[C@@H]2[C@@H](O)[C@H](O[C@H]3OC(CN)=CC[C@H]3N)[C@@H](N)C[C@H]2N)OC[C@]1(C)O` [Sisomicin], the IC50 [7] was 17 µM.
